A short description of data set [1]: Inhibition of EGFR L858R/T790M double mutant (unknown origin). Details: species or system Homo sapiens.
The target of data set [2] is Epidermal growth factor receptor (Homo sapiens, UniProt P00533, C797S/L858R/T790M). Nature of the data set: Inhibition of EGFR L858R/T790M/C797S mutant (unknown origin).
A short description of data set [3]: Antiproliferative activity against mouse BaF3 cells harboring EGFR L858R/T790M double mutant assessed as inhibition of cell growth.
The nature of data set [4]: PROTAC activity at CRBN/EGFR L858R/T790M double mutant in human HCC827 cells assessed as induction of EGFR degradation. It is filed as cell-based.
In data set [5] the target is von Hippel-Lindau disease tumor suppressor/Epidermal growth factor receptor (Homo sapiens, UniProt P00533+P40337, L858R). Nature of the data set: PROTAC activity at VHL/EGFR L858R mutant in human NCI-H3255 cells assessed as induction of EGFR degradation incubated for 24 hrs by immunoblotting analysis. It is filed as cell-based. A general note: In western blotting, separated proteins are transferred to a membrane and probed.

Data set [6] concerns BaF3. The experiment in a line: Antiproliferative activity against mouse BaF3 cells harboring EGFR C797S/T790M/del19 mutant assessed as growth inhibition incubated for 72 hrs by CellTiter-Glo assay. The conditions noted are these: BaF3, 72 h. It is filed as functional, cell-based. For orientation: ATP-based viability assays read luminescence as a measure of living cells.
The nature of data set [7]: Oral bioavailability in rat. The note with it: in vivo.
Data set [8] can be described thus: Antiproliferative activity against human NCI-H1975 cells harboring EGFR L858R/T790M double mutant assessed as inhibition of cell growth incubated for 72 hrs by CellTiter-Glo assay. Format: functional, cell-based. The note with it: NCI-H1975, 72 h.
Data set [9] is described as follows: Antiproliferative activity against human NCI-H1975 cells harboring EGFR L858R/T790M/C797S […] mutant assessed as inhibition of cell growth. Format: functional, cell-based.
The nature of data set [10]: Intrinsic clearance in human hepatocytes. Format: ADME, cell-based, Hepatocyte.
A short description of data set [11]: Intrinsic clearance in human liver microsomes. Format: ADME, Microsome. (In general: Liver microsomes are a subcellular fraction often used to study metabolism.)
Data set [12] in a line: Intrinsic clearance in rat liver microsomes. It is filed as ADME, Microsome.
In data set [13] the test system is BaF3. Nature of the data set: Antiproliferative activity against mouse BaF3 cells harboring EGFR L858R/T790M/C797S mutant assessed as growth inhibition incubated for 72 hrs by CellTiter-Glo assay. Format: functional, cell-based. The note with it: BaF3, 72 h.
Data set [14] concerns the target Epidermal growth factor receptor (Homo sapiens, UniProt P00533, C797S/EX19DEL/T790M). Nature of the data set: Inhibition of EGFR C797S/T790M/Del19 mutant (unknown origin).
The target in data set [15] is Epidermal growth factor receptor (Homo sapiens, UniProt P00533). The experiment in a line: Inhibition of wild type EGFR (unknown origin).
Data set [16] concerns NCI-H1975. The experiment in a line: Antitumor activity against human NCI-H1975 cells xenografted in mouse model assessed as tumor growth inhibition at 40 mg/kg, po relative to control. Format: functional. The note with it: read-out: TGI.
Data set [17] deals with NCI-H1975. The experiment in a line: Antitumor activity against human NCI-H1975 cells xenografted in mouse model assessed as tumor growth inhibition at 80 mg/kg, po relative to control. The conditions noted are these: read-out: TGI. Format: functional.

The IC50 is the concentration that inhibits the measured activity by half. As usually defined, the DC50 is the midpoint of the concentration-degradation curve. The bioavailability is dose-corrected exposure relative to a reference, in per cent. The low end stands for little systemic uptake, the high end for much systemic uptake.

Epidermal growth factor receptor (Homo sapiens, UniProt P00533), sequence (P00533 whole entry): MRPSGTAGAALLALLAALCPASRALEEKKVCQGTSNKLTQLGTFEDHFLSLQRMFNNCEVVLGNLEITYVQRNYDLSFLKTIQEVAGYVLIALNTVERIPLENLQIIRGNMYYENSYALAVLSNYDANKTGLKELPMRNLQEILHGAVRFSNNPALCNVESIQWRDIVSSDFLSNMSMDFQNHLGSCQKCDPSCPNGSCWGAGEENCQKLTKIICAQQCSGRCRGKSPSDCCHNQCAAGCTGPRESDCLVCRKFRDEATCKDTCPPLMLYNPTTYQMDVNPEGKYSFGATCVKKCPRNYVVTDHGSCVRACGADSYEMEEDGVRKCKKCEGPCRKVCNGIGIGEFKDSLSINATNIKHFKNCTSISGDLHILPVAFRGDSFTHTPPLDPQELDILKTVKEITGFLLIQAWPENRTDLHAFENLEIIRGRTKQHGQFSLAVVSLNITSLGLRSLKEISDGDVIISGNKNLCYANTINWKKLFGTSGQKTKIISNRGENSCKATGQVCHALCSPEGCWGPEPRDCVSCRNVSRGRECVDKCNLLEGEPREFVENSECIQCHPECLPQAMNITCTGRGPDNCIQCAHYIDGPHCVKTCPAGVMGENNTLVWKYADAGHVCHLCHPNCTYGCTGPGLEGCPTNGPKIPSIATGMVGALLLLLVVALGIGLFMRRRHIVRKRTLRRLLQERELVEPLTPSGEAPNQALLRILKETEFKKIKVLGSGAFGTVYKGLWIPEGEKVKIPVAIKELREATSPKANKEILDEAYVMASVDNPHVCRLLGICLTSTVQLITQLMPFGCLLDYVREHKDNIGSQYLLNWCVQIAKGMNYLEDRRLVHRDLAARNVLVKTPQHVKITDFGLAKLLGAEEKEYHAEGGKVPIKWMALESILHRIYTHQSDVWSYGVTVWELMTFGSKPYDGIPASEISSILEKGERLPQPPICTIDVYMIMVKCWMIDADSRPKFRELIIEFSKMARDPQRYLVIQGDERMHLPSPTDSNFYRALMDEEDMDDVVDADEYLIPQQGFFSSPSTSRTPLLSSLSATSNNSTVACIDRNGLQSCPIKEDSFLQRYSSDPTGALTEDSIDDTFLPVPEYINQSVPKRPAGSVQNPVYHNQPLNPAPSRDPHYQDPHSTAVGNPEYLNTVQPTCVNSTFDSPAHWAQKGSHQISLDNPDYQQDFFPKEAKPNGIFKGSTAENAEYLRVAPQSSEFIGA
Epidermal growth factor receptor (Homo sapiens, UniProt P00533, C797S/EX19DEL/T790M), sequence (P00533 whole entry, looked up, stated change not applied): as the sequence (P00533 whole entry) above
Epidermal growth factor receptor (Homo sapiens, UniProt P00533, C797S/L858R/T790M), sequence (P00533 25-1210 T790M/C797S/L858R limits assumed): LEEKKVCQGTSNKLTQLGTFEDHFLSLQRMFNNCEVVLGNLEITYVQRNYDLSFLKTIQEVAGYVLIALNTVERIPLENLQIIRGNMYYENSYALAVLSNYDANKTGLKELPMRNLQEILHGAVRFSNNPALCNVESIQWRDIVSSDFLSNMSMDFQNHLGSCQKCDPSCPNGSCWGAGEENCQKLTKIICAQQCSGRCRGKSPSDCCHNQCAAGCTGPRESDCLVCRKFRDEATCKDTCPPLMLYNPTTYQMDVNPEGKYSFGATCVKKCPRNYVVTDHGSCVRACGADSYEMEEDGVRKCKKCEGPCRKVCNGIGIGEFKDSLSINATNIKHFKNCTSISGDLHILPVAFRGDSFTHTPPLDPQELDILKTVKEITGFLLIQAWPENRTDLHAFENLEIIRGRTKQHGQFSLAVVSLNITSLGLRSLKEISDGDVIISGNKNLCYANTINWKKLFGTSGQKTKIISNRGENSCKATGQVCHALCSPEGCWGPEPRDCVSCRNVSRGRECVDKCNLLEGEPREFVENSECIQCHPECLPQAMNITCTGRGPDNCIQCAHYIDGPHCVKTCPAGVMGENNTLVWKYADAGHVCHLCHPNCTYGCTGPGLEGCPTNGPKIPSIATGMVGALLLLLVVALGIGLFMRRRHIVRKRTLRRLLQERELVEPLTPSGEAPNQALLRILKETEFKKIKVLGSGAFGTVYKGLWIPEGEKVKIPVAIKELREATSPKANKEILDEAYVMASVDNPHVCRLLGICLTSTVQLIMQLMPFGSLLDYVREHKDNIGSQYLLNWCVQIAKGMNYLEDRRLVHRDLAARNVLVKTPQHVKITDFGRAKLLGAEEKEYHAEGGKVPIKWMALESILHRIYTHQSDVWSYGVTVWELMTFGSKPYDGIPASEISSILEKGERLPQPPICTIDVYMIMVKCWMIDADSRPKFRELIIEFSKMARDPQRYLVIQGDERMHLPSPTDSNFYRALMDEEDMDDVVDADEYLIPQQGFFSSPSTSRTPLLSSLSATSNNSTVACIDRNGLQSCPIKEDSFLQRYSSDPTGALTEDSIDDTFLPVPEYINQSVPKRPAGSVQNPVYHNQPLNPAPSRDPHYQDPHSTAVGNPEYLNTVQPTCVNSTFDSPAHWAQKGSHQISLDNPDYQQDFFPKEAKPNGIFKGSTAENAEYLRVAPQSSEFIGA
von Hippel-Lindau disease tumor suppressor/Epidermal growth factor receptor, sequence (P00533 25-1210 L858R limits assumed, stated change not applied): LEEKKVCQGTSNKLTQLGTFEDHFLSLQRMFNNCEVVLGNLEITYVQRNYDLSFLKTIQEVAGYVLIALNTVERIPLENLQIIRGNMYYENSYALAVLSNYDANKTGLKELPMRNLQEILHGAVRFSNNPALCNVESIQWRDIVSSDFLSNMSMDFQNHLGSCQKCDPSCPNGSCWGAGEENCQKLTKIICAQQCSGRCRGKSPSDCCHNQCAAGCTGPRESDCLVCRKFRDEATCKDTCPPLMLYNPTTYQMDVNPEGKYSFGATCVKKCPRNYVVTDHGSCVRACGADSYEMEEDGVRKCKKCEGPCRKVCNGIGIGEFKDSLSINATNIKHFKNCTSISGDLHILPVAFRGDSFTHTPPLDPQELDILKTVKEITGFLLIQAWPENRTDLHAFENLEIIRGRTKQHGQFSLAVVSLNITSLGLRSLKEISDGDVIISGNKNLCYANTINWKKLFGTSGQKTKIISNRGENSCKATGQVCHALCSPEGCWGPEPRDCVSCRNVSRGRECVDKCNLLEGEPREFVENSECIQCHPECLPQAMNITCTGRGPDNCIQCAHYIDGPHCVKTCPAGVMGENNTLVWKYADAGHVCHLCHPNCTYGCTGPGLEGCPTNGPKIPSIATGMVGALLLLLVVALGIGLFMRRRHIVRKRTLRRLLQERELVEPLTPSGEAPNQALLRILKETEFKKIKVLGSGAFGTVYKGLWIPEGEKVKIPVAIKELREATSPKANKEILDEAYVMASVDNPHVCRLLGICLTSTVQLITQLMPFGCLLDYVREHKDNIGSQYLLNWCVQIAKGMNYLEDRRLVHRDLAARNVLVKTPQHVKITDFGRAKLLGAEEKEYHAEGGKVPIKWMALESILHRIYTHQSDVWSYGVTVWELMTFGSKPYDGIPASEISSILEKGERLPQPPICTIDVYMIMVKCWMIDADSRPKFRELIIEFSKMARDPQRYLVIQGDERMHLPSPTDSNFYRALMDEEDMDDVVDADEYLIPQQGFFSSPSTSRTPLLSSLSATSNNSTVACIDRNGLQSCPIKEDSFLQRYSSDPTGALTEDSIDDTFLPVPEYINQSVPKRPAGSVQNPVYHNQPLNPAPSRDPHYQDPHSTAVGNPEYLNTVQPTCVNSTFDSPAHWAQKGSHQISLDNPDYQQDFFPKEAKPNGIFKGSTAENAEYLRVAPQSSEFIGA
von Hippel-Lindau disease tumor suppressor/Epidermal growth factor receptor, sequence (P40337 whole entry, stated change not applied): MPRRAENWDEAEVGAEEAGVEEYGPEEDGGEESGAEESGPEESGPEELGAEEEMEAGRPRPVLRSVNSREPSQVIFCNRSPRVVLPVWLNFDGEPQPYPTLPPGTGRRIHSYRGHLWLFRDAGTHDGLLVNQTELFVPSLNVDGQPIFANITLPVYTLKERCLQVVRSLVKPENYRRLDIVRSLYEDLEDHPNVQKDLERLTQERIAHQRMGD

For the compound `O=C(Nc1nccs1)C(c1cc(F)ccc1O)N1Cc2ccccc2C1=O` (centres undefined), it took 3 nM to reach half-maximal inhibition in [1] (IC50).
For `COc1cc2c(Nc3ccc(NC(=O)C(c4cc(F)ccc4F)N4Cc5ccccc5C4=O)cc3F)ncnc2cc1OCC1CCN(C)CC1` (centres undefined), it took 2.3 nM to reach half-maximal inhibition in data set [2] (IC50).
As to `O=C1CCC(N2C(=O)c3cccc(NCCOCCOCCOCCN4CCN(c5ccc(-c6ccc7c(c6)C(=O)N(C(C(=O)Nc6nccs6)c6ccccc6)C7)cn5)CC4)c3C2=O)C(=O)N1` (centres undefined), the IC50 in [3] came out at 96 nM.
For the compound `COc1cc2ncnc(Nc3ccc(F)c(Cl)c3)c2cc1OCCCN1CCN(CCC(=O)NCCCCCCCCOc2cccc3c2C(=O)N(C2CCC(=O)NC2=O)C3=O)CC1` (centres undefined), the DC50 in data set [4] stood at 5 nM.
With `COc1cc(N2CCN(CCCCCCCC(=O)N[C@H](C(=O)N3C[C@H](O)C[C@H]3C(=O)N[C@@H](C)c3ccc(-c4scnc4C)cc3)C(C)(C)C)CC2)ccc1Nc1ncc(Cl)c(Nc2ccccc2P(C)(C)=O)n1`, the DC50 in data set [5] is 8 nM.
For the compound `COc1cc(N2CCC(N3CCN(C)CC3)CC2)c(C)cc1Nc1ncc(Br)c(Nc2ccc3nccnc3c2P(C)(C)=O)n1`, the IC50 in the data set on BaF3 [6] is 26.8 nM.
For the compound `CC(C)c1cnc(N2CC(CS(C)(=O)=O)C2)c2cnc(Nc3ccnc(N4CC[C@@H](O)[C@@](C)(F)C4)n3)cc12`, the bioavailability in data set [7] is 2%. The IC50 in data set [8] was 4.8 nM.
Turning to `N#Cc1ccc(O)c(-c2nc(NCc3ncccn3)c3ccccc3n2)c1`, the IC50 in [9] is 1200 nM.
In turn, `CC(C)c1ccc(N2C[C@H](CS(C)(=O)=O)[C@H]2C)c2cnc(Nc3ccnc(N4CC[C@@H](O)[C@@](C)(F)C4)n3)cc12` registered a bioavailability in [7] of 50%. In addition, the values for the CLint in data set [10], in data set [11] and in [12] were 41 µL/min/1e6 cells, 7.2 µL/min/mg and 43 µL/min/mg, respectively. The IC50 in data set [8] came to 1 nM.
For `CN1CCC(c2ccc(-c3ccc4c(c3)C(=O)N(C(C(=O)Nc3nccs3)c3cc(F)ccc3O)C4)cc2)CC1` (centres undefined), in data set [1], the midpoint of inhibition, the IC50, lay at 0.063 nM.
In data set [7], `CC(C)c1ccc(N2CC(CS(C)(=O)=O)C2)c2cnc(Nc3ccnc(N4CC[C@@H](O)[C@@](C)(F)C4)n3)cc12` showed a bioavailability of 85%. In data set [8], the IC50 was 2.7 nM.
As for `CN1CCN(c2ccc(Nc3ncc(Cl)c(Nc4ccccc4P(C)(C)=O)n3)cc2Br)CC1`, the concentration for half-maximal inhibition (IC50) is 90 nM with BaF3 [6] and 120 nM in the data set on BaF3 [13].
For `Oc1ccccc1-c1nc(NCN2CCOCC2)c2ccccc2n1`, the IC50 is 1730 nM in data set [14] and 37100 nM in data set [15].
On the same counts, the results for `Oc1ccccc1-c1nc(NCc2c[nH]cn2)c2ccccc2n1` are 4.84 nM and more than 50000 nM.
Taken in the same sequence, the figures for `Cn1cnc(Nc2nc(-c3ccccc3O)nc3ccccc23)c1` were 3.38 nM and more than 50000 nM.
For `[2H]C([2H])([2H])c1cc(Nc2ncc(Br)c(Nc3ccccc3S(=O)(=O)C3CC3)n2)ccc1N1CCN(C([2H])([2H])[2H])CC1`, the IC50 was determined as 0.09 nM in [2], 12 nM in the data set with BaF3 [6] and 16 nM with BaF3 [13]. Further, the inhibition in vivo at 40 mg/kg with NCI-H1975 [16] is 75.1%.
With `Oc1ccc(Br)cc1-c1nc(NCc2ncccn2)c2ccccc2n1`, the IC50 is 440 nM in data set [2] and 12600 nM in data set [9].
`Cc1cc(Nc2ncc(Br)c(Nc3ccccc3S(=O)(=O)C3CC3)n2)ccc1N1CCN(C)CC1`: in the data set with NCI-H1975 [17], the inhibition in vivo at 80 mg/kg is 73.2%.
Compound `CO[C@@H]1CCN(c2nccc(Nc3cc4c(C(C)C)ccc(N5C[C@H](CS(C)(=O)=O)[C@H]5C)c4cn3)n2)C[C@@H]1F` [TIGOZERTINIB] came in with a bioavailability in data set [7] of 48%. For the same compound, the IC50 in data set [8] is 1.1 nM.

(Values after ChEMBL document CHEMBL6074632, “Next-generation EGFR tyrosine kinase inhibitors to overcome C797S mutation in non-small cell lung cancer (2019-2024)” (RSC Med Chem, 2024).)
